Patent US9409898B2, “Substituted pyrazole compounds as CRAC modulators” (LUPIN LIMITED, priority 2012, dated 2016)

Test system: IL-2 secretion
Test: Inhibition of IL-2 secretion in PHA-stimulated Jurkat T cells (ELISA)
Assay type: cell-based
Conditions: Homo sapiens, PHA stimulation, 20 to 24 hours, IL-2 by ELISA
Protocol: The CRAC channel modulatory activity of the compounds were thus evaluated by measuring the secretion of IL-2 by antigen stimulated T-cells in vitro. Alternatively, such activity can also be evaluated by assay methods known to one skilled in the art.
Inhibition of IL-2 secretion: Jurkat T cells were seeded at a density of 0.5 to 1 million cells per well in RPMI medium. Test compounds from this invention were added to the cells at different concentrations. This was followed by the addition of PHA, a T cell mitogen after 10 minutes. The cells were then incubated for 20 to 24 hours in a CO2 incubator at 37° C. After incubation with the compounds, cells were centrifuged, the supernatant was collected and processed for ELISA to quantitate the amount of IL-2 secreted. A commercial ELISA kit (R&D Systems, Inc. Minneapolis, Minn., USA) was used to estimate the IL-2 concentrations. Amount of IL-2 secreted by cells stimulated with PHA was considered as a 100% maximal signal and the decrease in amount of IL-2 secreted by cells treated with the test compounds was expressed as percent inhibition of the maximal signal. The dose response data was analyzed using 4-parametric sigmoidal dose response (variable slope) curve—fit.

**Q.** How did the IC50 turn out when `Cc1cccc(F)c1CNc1ccc(-n2nc(-c3nn(C)c(=O)o3)cc2C(F)(F)F)cn1` [Example 53, 5-(1-(6-((2-Fluoro-6-methylbenzyl)amino)pyridin-3-yl)-5-(trifluoromethyl)-1H-pyrazol-3-yl)-3-methyl-1,3,4-oxadiazol-2(3H)-one] was run?
**A.** < 100 nM

**Q.** `Cn1nc(-c2cc(C(F)(F)F)n(-c3ccc(C(=O)Nc4c(F)cccc4F)cn3)n2)oc1=O` [Example 54, N-(2,6-Difluorophenyl)-6-(3-(4-methyl-5-oxo-4,5-dihydro-1,3,4-oxadiazol-2-yl)-5-(trifluoromethyl)-1H-pyrazol-1-yl)nicotinamide] was tested. Which IC50 did it give?
**A.** 100 to 1000 nM

**Q.** With `Cn1nc(-c2cc(C(F)(F)F)n(-c3ccc(C(=O)Nc4c(F)cccc4Cl)cn3)n2)oc1=O` [Example 55, N-(2-Chloro-6-fluorophenyl)-6-(3-(4-methyl-5-oxo-4,5-dihydro-1,3,4-oxadiazol-2-yl)-5-(trifluoromethyl)-1H-pyrazol-1-yl)nicotinamide] as the compound, how does the IC50 read?
**A.** < 100 nM
